According to US10487054B2, “Therapeutic compounds” (REGENTS OF THE UNIVERSITY OF MINNESOTA, priority 2017, dated 2019):

Legend:
[1] = system: AP-1 activity in A431 cells; experiment: AP-1 luciferase reporter assay in control or TOPK knockdown cells; format: cell-based, human
Method: (§1) The cells were cultured, treated for 4 h with different concentrations of compound 1 and then exposed to SUV (60 kJ UVA/m^2 and 2.9 kJ UVB/m^2), followed by an additional 15-minute incubation. Cells were harvested and the levels of phosphorylated and total proteins were determined by Western blot analysis with specific antibodies as indicated. […] The cells were cultured and treated with different concentrations of compound 1 for 24 h. Cells were harvested and the levels of phosphorylated and total proteins were determined by Western blot analysis with specific antibodies as indicated. […] For the luciferase assay, JB6 P+ cells stably transfected with an AP-1 luciferase reporter plasmid were cultured. […] Luciferase activity was measured and AP-1 activity is expressed relative to control cells without SUV treatment. […] Luciferase and 3-galactosidase activities were measured using reagents included in the reporter assay system (right). […] Significant differences were evaluated using one-way ANOVA and the asterisks (*) indicate a significant effect (*, p<0.05; **, p<0.001; ***, p<0.0001). […]
Stable control or TOPK knockdown cells were co-transfected with 100 ng of the AP-1 luciferase reporter plasmid and 50 ng of an internal control […] plasmid. […] Luciferase and β-galactosidase activities were measured using the Luminoskan Ascent and Multiskan MCC (Labsystems), respectively. […]

JB6 P+ cells = experiment: Western blot of SUV-induced TOPK downstream signaling; format: cell-based, mouse
Method: as §1
HaCaT or JB6 P+ cells (1×10^6) were cultured in 10-cm dishes for 24 h and then the medium was replaced with 0.1% FBS medium for 24 h. […] Protein concentration in cell lysates was determined using a protein assay kit (Bio-Rad Laboratories, Hercules, Calif.). […]

[2] = system: JB6 P+ mouse epidermal skin cells; experiment: MTS assay for cytotoxicity; format: cell-based; conditions: 24 or 48 h, concentrations less than 10 μM
Method: (§2) Cells (1×10^4 cells/well) were seeded into 96-well plates. After an overnight incubation, cells were treated with different concentrations of compound 1 and incubated for 24 or 48 h. Then 20 μL of the CellTiter 96 Aqueous One Solution (Promega, Madison, Wis.) were added to each well and cells were incubated for an additional 1 h at 37° C. Absorbance was measured at an optical density of 492 and 690 nm using the Thermo Multiskan plate-reader (Thermo Fisher Scientific, Waltham, Mass.).
as §2, with “plates for determining cytotoxicity.” for “plates.”, “(Promega Corporation,” for “(Promega,”

[3] = system: normal human dermal fibroblasts (NHDF); experiment: MTS assay for cytotoxicity; format: cell-based; conditions: 24 or 48 h, concentrations less than 10 μM
Method: as §2
as §2, with “plates for determining cytotoxicity.” for “plates.”, “(Promega Corporation,” for “(Promega,”

`O=C1Nc2ccc(C34CC5CC(CC(C5)C3)C4)cc2C1=NO` [compound 1, 5-(adamantan-1-yl)-3-(hydroxyimino)indolin-2-one] was tested, and the AP-1 activity ([1]; A431 TOPK knockdown group, highest concentration (5 μM)) was “only slightly affected”, the AP-1 activity ([1]; A431 control group, 24 h) was “inhibited by compound 1 in a dose-dependent manner” and the “phosphorylated c-Jun protein levels” value (JB6 P+ cells; JB6 P+ cells exposed to SUV) was “significantly suppressed”. The “phosphorylation of ERK1/2, p38, and JNKs” value (JB6 P+ cells; JB6 P+ cells, 4 h treatment then SUV (60 kJ UVA/m2 and 2.9 kJ UVB/m2)) was “markedly suppressed”, the cytotoxicity [2] was “no cytotoxicity” and the cytotoxicity [3] was “no cytotoxicity”.
